Values of other authors in patent US20040028754A1, “Use of phyllanthus component for the treatment or prophylaxis of infections triggered by flaviviridae” (priority 2000, published 2004).

How the values were obtained:
[1] = target: T1, cAMP-dependent protein kinase of the rat liver (Rattus norvegicus, UniProt P27791)
T1 construct: the cAMP-dependent protein kinase of the rat liver; from tissue; host or cells: rat liver

[2] = system: Ca^2+- and phospholipid-dependent protein kinase C (PKC) of the rat brain
[3] = system: Ca^2+-dependent protein kinase of the wheat embryo
Bacillus subtilis = settings: 0.1 ml; extract 50 mg/ml, streptomycin 10 mg/ml
Staphylococcus aureus = settings: 0.1 ml; extract 50 mg/ml, streptomycin 10 mg/ml

Compound	inhibition of protein kinase [1]	inhibition of protein kinase [2]	inhibition of protein kinase [3]	inhibition zone (Bacillus subtilis)	inhibition zone (Staphylococcus aureus)
O=C1OC2C3OC(=O)C4=CC(=O)C5(O)Oc6c(O)c(O)cc(c6C4C5(O)O)C(=O)OC2C(OC(=O)c2cc(O)c(O)c(O)c2)OC3COC(=O)c2cc(O)c(O)c3c2C2C1=CC(=O)C(O)(O3)C2(O)O (centres unmarked) [amariin]	most effective	most effective	most effective	–	–
geraiin	most effective	most effective	most effective	–	–
[H]/N=C(/N)N[C@H]1[C@H](O)[C@@H](O)[C@H](O[C@@H]2O[C@@H](C)[C@](O)(C=O)[C@H]2O[C@@H]2O[C@@H](CO)[C@H](O)[C@@H](O)[C@@H]2NC)[C@@H](N/C(N)=N\[H])[C@@H]1O [streptomycin]	–	–	–	35 mm	35 mm
